From US9885060B2, “Alkene production” (Evonik Degussa GmbH, priority 2015, dated 2018)

What was measured:
Format in all cases: biochemical
OleT [1] = test: Decarboxylation of FAs C22 to C4 employing the FDH-CamAB-OleT redox-cascade; conditions: for Conversion / α-Olefin / Selectivity α-OH / Selectivity α-Olefin / Selectivity β-OH / Selectivity n-Alkanone: 10 mM substrate
Experimental: (§1) Enzymatic reactions (1 mL scale) were quenched by addition of 100 μL 5 N Extraction of substrate and products was performed with 500 μL EtOAc containing 0.1% 1-decanol as internal standard. The organic phase was dried over anhydrous Na2SO4. Derivatization of carboxylic acids (fatty acids and hydroxy acids) to the corresponding methyl esters was achieved by mixing the organic phase with MeOH (2.5:1.5 v/v) followed by supplementation of 5 to 15 μL of 2 M TMSCHN2 (trimethylsilyldiazomethane in diethyl ether). The mixture was incubated for 30 min, 25° C. and 750 rpm before injection into GC-FID or GC-MS, Extraction and derivatization of products and substrates from conversion of short chain FAs ([…]) was performed using the same protocol but all steps were performed on ice to prevent undesired loss of volatile products.
(§2) Products from FA substrates with chain lengths ranging from C22 to C10 were separated on a HP5 column (Programm) and detected by GC-FID or GC-MS. Extracted products from conversion of nonanoic acid (I-octene as product) were separated on a DB1702 column (Programm) and detected by GC-FID. Authentic standards of substrates and terminal olefins were treated as described above and were used as references for identification and preparation of calibration curves. Detection of volatile short chain terminal olefins (1-butene/1-propene [ongoing] to 1-heptene) was accomplished by manual injection from vial headspaces into GC-MS, in order to prevent loss of products, the vials containing the reaction mixtures were sealed with a PTFE septum. After conversion the closed vial was heated for 10 min at 80° C., together with a 10 ml syringe (TYPE). From the headspace 2 to 9 μl volumes were injected splitless into a GC-MS chromatograph and analytes were separated on a HP5 column (Programm). Calibration curves for 1-pentene, 1-hexene and 1-heptene were prepared in the same way at 4° C. and using 5% DMF as cosolvent.
The substrate scope of OleT was further investigated by varying the FA chain length from C3 to C22. […] For the first time, short EAs could be decarboxylated to the corresponding olefins, covering the whole spectrum from C11 down to C4. […] Due to the high volatility of short chain olefins, product work up was done at 4° C. […] (2.53 mM product from 5 mM lauric acid). Head-space analysis by GC-MS from reactions with short chain FAs (C8-C5) confirmed the formation of the respective α-olefins, allowing the first biotechnological access to 1-heptene, 1-hexene and 1-pentene and 1-butene with OleT.
Conversion of heptanoic acid was carried out as described in Example 4 using the OleTCamAB-FDH reaction cascade.
Calibration curves for 1-hexene were prepared accordingly ranging from 0.05 to 2 mM. Due to a strong overlap of […] with the peak areas of CO2 and EtOH (FIG. 1, peaks a, b and c) the ion extraction mode of the GC-MS to generate reliable calibration curves was used. Neither CO2 nor EtOH interfered with the product peak area. This can be seen comparing FIGS. 1 and 5 which allow reliable and linear quantification of 1-hexene (FIG. 6) using manual headspace GC-MS injection.
Manual headspace injection into GC-MS was successfully performed for all substrates with chain lengths of C11 to C6. Conversion of 10 mM heptanoic acid allowed reliable formation of up to 1.3 mM 1-hexene without further optimization of the reaction conditions.

OleT [2] = test: Decarboxylation of stearic and palmitic acid by OleT using O2/CamAB or H2O2 as oxidant; conditions: 1 μM OleT, 1 mM substrate
OleT [3] = test: Decarboxylation of stearic acid by OleT with CamAB redox cascade and NAD(P)H regeneration system (GDH, PDH, FDH)
Experimental: as §1, §2
After 24 h reaction time, product concentrations of 1.16 mM (0.27 g L-1) 1-heptadecene and 1 mM (0.21 g L-1) 1-pentadecene were obtained but could not be further enhanced. […] Compared to a previously published whole cell reaction system, this FDH-driven system allows 6 times higher product titer and a 21 times higher volumetric productivity with 42.5 mg L-1 h-1 of α-olefin after 8 h reaction time vs: 98 mg L-1 in 48 h) (Table 2).

[4] = 200 μM NADPH + O2, CamAB, 60 min
[5] = 1 mM H2O2, 150 min, no CamAB, strong precipitation observed
[6] = 1 mM NADPH + O2, CamAB, 150 min
[7] = FDH-based regeneration, 5 mM stearic acid
[8] = Formate [8 h], FDH-CamAB, purified OleT 3 μM, 5 mM stearic acid
[9] = Formate, FDH-(Fdr/Fdx) without CamAB, cell free lysate OleT 3 μM, 5 mM stearic acid, 24 h
[10] = Formate, FDH-CamAB, purified OleT 1.5 μM, 5 mM stearic acid, 24 h
[11] = Formate, FDH-CamAB-Fdr/Fdx, cell free lysate OleT 3 μM, 5 mM stearic acid, 24 h
[12] = Glucose, GDH-CamAB, purified OleT 1.5 μM, 5 mM stearic acid, 24 h
[13] = PDH-based regeneration, 5 mM stearic acid
[14] = Phosphite, PDH-CamAB, purified OleT 1.5 μM, 5 mM stearic acid, 24 h

Structure (SMILES): CCCCCCCCC(=O)O [C9, nonanoic acid]
- Conversion (OleT [1]; 4 °C, 72 h): 13%
- α-Olefin (OleT [1]; 4 °C, 72 h): 1347 µM
- Conversion (OleT [1]; 25 °C, 24 h): 18%
- Selectivity α-OH (OleT [1]; 25 °C, 24 h): 17 % GC-area
- Selectivity α-Olefin (OleT [1]; 25 °C, 24 h): 53 % GC-area
- Selectivity β-OH (OleT [1]; 25 °C, 24 h): 30 % GC-area
- α-Olefin (OleT [1]; 25 °C, 24 h): 1829 µM

Structure (SMILES): CCCCCCCCCC(=O)O [C10, capric acid/decanoic acid]
- Conversion (OleT [1]; 4 °C, 72 h): 0.7%
- Selectivity α-Olefin (OleT [1]; 4 °C, 72 h): >99 % GC-area
- α-Olefin (OleT [1]; 4 °C, 72 h): 71 µM
- Conversion (OleT [1]; 25 °C, 24 h): 0.4%
- Selectivity α-Olefin (OleT [1]; 25 °C, 24 h): >99 % GC-area
- Selectivity β-OH (OleT [1]; 25 °C, 24 h): Traces
- α-Olefin (OleT [1]; 25 °C, 24 h): 44 µM

Structure (SMILES): CCCCCCCCCCCC(=O)O [C12, lauric acid]
- product concentration (OleT [1]; 4° C., 5 mM lauric acid): 2.53 mM
- Conversion (OleT [1]; 4 °C, 72 h): 33%
- Selectivity α-Olefin (OleT [1]; 4 °C, 72 h): 73 % GC-area
- Selectivity β-OH (OleT [1]; 4 °C, 72 h): 30 % GC-area
- α-Olefin (OleT [1]; 4 °C, 72 h): 3260 µM
- Conversion (OleT [1]; 25 °C, 24 h): 3%
- α-Olefin (OleT [1]; 25 °C, 24 h): 273 µM

Structure (SMILES): CCCCCCCCCCCCCCCC(=O)O [Palmitic Acid, palmitic acid]
- Coupling (OleT [2]; 200 μM H2O2, 60 min, no CamAB): 33%
- TOF (OleT [2]; 200 μM H2O2, 60 min, no CamAB): 65 h⁻¹
- TON (OleT [2]; 200 μM H2O2, 60 min, no CamAB): 65
- α-Olefin (OleT [2]; 200 μM H2O2, 60 min, no CamAB): 65 µM
- Coupling (OleT [2]; 200 μM NADH + O2, CamAB, 6 min): 3%
- TOF (OleT [2]; 200 μM NADH + O2, CamAB, 6 min): 60 h⁻¹
- TON (OleT [2]; 200 μM NADH + O2, CamAB, 6 min): 60
- α-Olefin (OleT [2]; 200 μM NADH + O2, CamAB, 6 min): 6 µM
- Coupling (OleT [2]; [4]): 10%
- TOF (OleT [2]; [4]): 21 h⁻¹
- TON (OleT [2]; [4]): 21
- α-Olefin (OleT [2]; [4]): 21 µM
- Coupling (OleT [2]; [5]): 7%
- TOF (OleT [2]; [5]): 29 h⁻¹
- TON (OleT [2]; [5]): 29
- α-Olefin (OleT [2]; [5]): 73 µM
- Coupling (OleT [2]; 1 mM NADH + O2, CamAB, 60 min): 1%
- TOF (OleT [2]; 1 mM NADH + O2, CamAB, 60 min): 9 h⁻¹
- TON (OleT [2]; 1 mM NADH + O2, CamAB, 60 min): 9
- α-Olefin (OleT [2]; 1 mM NADH + O2, CamAB, 60 min): 9 µM
- Coupling (OleT [2]; [6]): 3%
- TOF (OleT [2]; [6]): 13 h⁻¹
- TON (OleT [2]; [6]): 33
- α-Olefin (OleT [2]; [6]): 33 µM
- Conversion (OleT [1]; 4 °C, 72 h): 21%
- Selectivity n-Alkanone (OleT [1]; 4 °C, 72 h): 6 % GC-area
- Selectivity α-OH (OleT [1]; 4 °C, 72 h): <1 % GC-area
- Selectivity α-Olefin (OleT [1]; 4 °C, 72 h): 80 % GC-area
- Selectivity β-OH (OleT [1]; 4 °C, 72 h): 14 % GC-area
- α-Olefin (OleT [1]; 4 °C, 72 h): 2059 µM
- Conversion (OleT [1]; 25 °C, 24 h): 11%
- Selectivity n-Alkanone (OleT [1]; 25 °C, 24 h): 8 % GC-area
- Selectivity α-OH (OleT [1]; 25 °C, 24 h): 3 % GC-area
- Selectivity α-Olefin (OleT [1]; 25 °C, 24 h): 72 % GC-area
- Selectivity β-OH (OleT [1]; 25 °C, 24 h): 23 % GC-area
- α-Olefin (OleT [1]; 25 °C, 24 h): 1111 µM

Structure (SMILES): CCCCCCCCCCCCCCCCCC(=O)O [Stearic Acid, stearic acid]
- Conversion (OleT [3]; [7]): 62%
- TIN (OleT [3]; [7]): 2096
- volumetric productivity of α-olefin (OleT [3]; FDH-driven system, after 8 h reaction time): 42.5 mg/L/h
- Product (OleT [3]; [8]): 0.34 g/L
- TTN (OleT [3]; [8]): 473
- α-Olefin (OleT [3]; [8]): 1419 µM
- Product (OleT [3]; [9]): 0.1 g/L
- TTN (OleT [3]; [9]): 151
- α-Olefin (OleT [3]; [9]): 452 ± 52 µM
- Product (OleT [3]; [10]): 0.75 g/L
- TTN (OleT [3]; [10]): 2096
- α-Olefin (OleT [3]; [10]): 3144 ± 121 µM
- Product (OleT [3]; [11]): 0.37 g/L
- TTN (OleT [3]; [11]): 522
- α-Olefin (OleT [3]; [11]): 1565 ± 20 µM
- Conversion (OleT [3]; GDH-based system, 1 mM stearic acid): 36%
- TIN (OleT [3]; GDH-based system, 10 mM stearic acid): up to 389
- Product (OleT [3]; [12]): 0.24 g/L
- TTN (OleT [3]; [12]): 680
- α-Olefin (OleT [3]; [12]): 1020 ± 63 µM
- Conversion (OleT [3]; [13]): 52%
- TIN (OleT [3]; [13]): 1739
- Product (OleT [3]; [14]): 0.62 g/L
- TTN (OleT [3]; [14]): 1739
- α-Olefin (OleT [3]; [14]): 2609 ± 256 µM
- Coupling (OleT [2]; 200 μM H2O2, 60 min, no CamAB): 85%
- TOF (OleT [2]; 200 μM H2O2, 60 min, no CamAB): 170 h⁻¹
- TON (OleT [2]; 200 μM H2O2, 60 min, no CamAB): 170
- α-Olefin (OleT [2]; 200 μM H2O2, 60 min, no CamAB): 170 ± 7 µM
- Coupling (OleT [2]; 200 μM NADH + O2, CamAB, 6 min): 7%
- TOF (OleT [2]; 200 μM NADH + O2, CamAB, 6 min): 150 h⁻¹
- TON (OleT [2]; 200 μM NADH + O2, CamAB, 6 min): 15
- α-Olefin (OleT [2]; 200 μM NADH + O2, CamAB, 6 min): 15 ± 1 µM
- Coupling (OleT [2]; [4]): 25%
- TOF (OleT [2]; [4]): 53 h⁻¹
- TON (OleT [2]; [4]): 53
- α-Olefin (OleT [2]; [4]): 53 ± 5 µM
- Coupling (OleT [2]; [5]): 5%
- TOF (OleT [2]; [5]): 21 h⁻¹
- TON (OleT [2]; [5]): 53
- α-Olefin (OleT [2]; [5]): 53 ± 15 µM
- Coupling (OleT [2]; 1 mM NADH + O2, CamAB, 60 min): 2%
- TOF (OleT [2]; 1 mM NADH + O2, CamAB, 60 min): 20 h⁻¹
- TON (OleT [2]; 1 mM NADH + O2, CamAB, 60 min): 20
- α-Olefin (OleT [2]; 1 mM NADH + O2, CamAB, 60 min): 20 ± 2 µM
- Coupling (OleT [2]; [6]): 11%
- TOF (OleT [2]; [6]): 47 h⁻¹
- TON (OleT [2]; [6]): 118
- α-Olefin (OleT [2]; [6]): 118 ± 23 µM
- Conversion (OleT [1]; 4 °C, 72 h): 25%
- Selectivity n-Alkanone (OleT [1]; 4 °C, 72 h): 5 % GC-area
- Selectivity α-OH (OleT [1]; 4 °C, 72 h): <1 % GC-area
- Selectivity α-Olefin (OleT [1]; 4 °C, 72 h): 93 % GC-area
- Selectivity β-OH (OleT [1]; 4 °C, 72 h): 5 % GC-area
- α-Olefin (OleT [1]; 4 °C, 72 h): 2451 µM
- Conversion (OleT [1]; 25 °C, 24 h): 39%
- Selectivity n-Alkanone (OleT [1]; 25 °C, 24 h): 6 % GC-area
- Selectivity α-OH (OleT [1]; 25 °C, 24 h): 2 % GC-area
- Selectivity α-Olefin (OleT [1]; 25 °C, 24 h): 86 % GC-area
- Selectivity β-OH (OleT [1]; 25 °C, 24 h): 8 % GC-area
- α-Olefin (OleT [1]; 25 °C, 24 h): 3886 µM
- maximum product concentration (OleT [1]; RT, 5 mM stearic acid): 2.45 mM
